Measured values as given in patent publication US12435066B2, “Substituted tricyclic compounds” (LUPIN LIMITED, priority 2019, dated 2025).

Key:
pERK in DLD1 cells = experiment: ERK phosphorylation assay after EGF stimulation; format: cell-based; details: Homo sapiens, DLD-1, compound 2 h, 200 ng/ml hEGF 5 minutes, alphascreen pERK, read-out: ERK phosphorylation inhibition IC50
How it was run: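 DLD1 cells pretreated 2 h with compound, then stimulated 5 minutes with 200 ng/ml hEGF. Lysates assayed for ERK1/2 p-T202/Y204 by AlphaScreen SureFire, read after 2 h at 25-28° C.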

hSOS1 and hKRASG12C = biological target: T1, hSOS1 and hKRASG12C (Homo sapiens, UniProt Q07889); experiment: biochemical
T1 sequence (Q07889 564-1049): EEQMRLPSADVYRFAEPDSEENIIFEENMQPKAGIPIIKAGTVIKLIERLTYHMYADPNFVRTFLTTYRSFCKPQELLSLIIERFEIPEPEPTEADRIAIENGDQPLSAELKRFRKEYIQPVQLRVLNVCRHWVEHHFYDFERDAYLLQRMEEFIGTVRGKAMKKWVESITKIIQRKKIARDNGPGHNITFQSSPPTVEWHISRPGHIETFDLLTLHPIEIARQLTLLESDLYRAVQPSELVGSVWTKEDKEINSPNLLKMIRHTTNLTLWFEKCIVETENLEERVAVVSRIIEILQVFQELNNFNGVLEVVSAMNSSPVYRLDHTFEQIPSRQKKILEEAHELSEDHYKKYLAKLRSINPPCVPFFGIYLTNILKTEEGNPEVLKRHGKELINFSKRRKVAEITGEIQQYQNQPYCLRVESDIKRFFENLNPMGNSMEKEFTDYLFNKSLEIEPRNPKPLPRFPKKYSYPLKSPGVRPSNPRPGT
Description: Interaction assay was conducted to evaluate the ability of the compounds to disrupt the protein-protein interactions between hSOS1 and hKRASG12C. Inhibitory effect of compounds on GST-hSOS1, 564-1049aa expressed and purified in-house and HIS-hKRASG12C (R06-32DH, SignalChem) interaction was assessed using HTRF detection technology in biochemical assay. Compounds were pre-incubated with 10-50 nM working solution of hSOS1 per well of a 384 well plate (Perkin Elmer, Cat #6007290) for 10 min at 20° C. in the assay buffer containing 5 mM HEPES, pH 7.4, 150 mM NaCl, 10 mM EDTA, 1 mM DTT, 0.05% BSA fraction V and 0.0025% Igepal. Reaction was initiated by adding 100-300 nM working solution of hKRASG12C in assay buffer. Total assay volume was 15 μL. Reaction was continued for 30-60 min at 20° C. Then detection solution containing MAb Anti-GST-d2 (#61GSTDLA, Cisbio BioAssays) and MAb Anti-HIS-Tb (#61HISTLA, Cisbio BioAssays), all prepared in HTRF detection buffer (#61DB10RDF, Cisbio BioAssays) was added and further incubated for 30-60 min at 20° C. HTRF signal was recorded in PHERAStar microplate reader. Ratio of signal obtained at 665 nm and 620 nm was used to compute the percent inhibition of compound utilizing the following formula:
Positive control=hSOS1+hKRASG12C+MAb Anti-GST-d2+Mab Anti-HIS-Tb Negative control=hKRASG12C+MAb Anti-GST-d2+MAb Anti-HIS-Tb

[1] = biological target: T2, hSOS1 mediated nucleotide exchange on hKRASG12C (Homo sapiens, UniProt Q07889); experiment: biochemical
T2 sequence (Q07889 564-1049): T1 sequence (Q07889 564-1049)
Description: Example-127: Guanine Nucleotide Exchange Assay (GNEA)
GNEA assay was conducted to evaluate the effects of compounds on the nucleotide exchange on hKRASG12C mediated by hSOS1. Inhibitory effect of compounds on HIS-hSOS1, 564-1049aa mediated GTP loading onto GST-hKRASG12C, 1-169aa both expressed and purified in-house was assessed using HTRF detection technology in biochemical assay. Compounds were pre-incubated with hSOS1 working solution containing 10-50 nM hSOS1 and 200 nM EDA-GTP-DY-647P1 (Custom manufactured, Jena Biosciences) per well of a 384 well plate (Perkin Elmer, Cat #6007290) for 10 min at 20° C. in the assay buffer containing 10 mM HEPES, pH 7.4, 150 mM NaCl, 5 mM MgCl2, 1 mM DTT, 0.05% BSA fraction V and 0.0025% Igepal. Reaction was initiated by adding working solution of hKRASG12C containing 25-125 nM hKRASG12C and MAb Anti-GST-Tb (#61GSTTLA, Cisbio BioAssays) in assay buffer. Total assay volume was 15 μL. Reaction was continued for 30-60 min at 20° C. HTRF signal was recorded in PHERAStar microplate reader. Ratio of signal obtained at 665 nm and 620 nm was used to compute the percent inhibition of compound as follows.
Where, Positive control=hSOS1+EDA-GTP-DY-647P1+hKRASG12C+MAb Anti-GST-Tb Negative control=EDA-GTP-DY-647P1+hKRASG12C+MAb Anti-GST-Tb

Cc1nc(N[C@H](C)c2cccc(C(F)(F)C(C)(C)O)c2F)c2cc(N3C[C@@H]4[C@@H](CO)[C@@H]4C3)c3c(c2n1)CCC3 [Compound 58, 1,1-difluoro-1-(2-fluoro-3-((R)-1-((6-((1R,5S,6R)-6-(hydroxymethyl)-3-azabicyclo[3.1.0]hexan-3-yl)-2-methyl-8,9-dihydro-7H-cyclopenta[h]quinazolin-4-yl)amino)ethyl)phenyl)-2-methylpropan-2-ol]
IC50 (pERK in DLD1 cells): 1 to 200 nM | IC50 (hSOS1 and hKRASG12C): 1 to 10 nM | IC50 [1]: 1 to 30 nM

COCC1(O)CCN(c2cc3c(N[C@H](C)c4cc(N)cc(C(F)(F)F)c4)nc(C)nc3c3c2CCC3)CC1 [Compound 47, (R)-1-(4-((1-(3-amino-5-(trifluoromethyl)phenyl)ethyl)amino)-2-methyl-8,9-dihydro-7H-cyclopenta[h]quinazolin-6-yl)-4-(methoxymethyl)piperidin-4-ol]
IC50 (pERK in DLD1 cells): 1 to 200 nM | IC50 (hSOS1 and hKRASG12C): 1 to 10 nM | IC50 [1]: 1 to 30 nM

Cc1nc(N[C@H](C)c2cccc(C(F)(F)CO)c2F)c2cc(N3CC[C@H](O)C3)c3c(c2n1)CCC3 [Compound 22, (S)-1-(4-(((R)-1-(3-(1,1-difluoro-2-hydroxyethyl)-2-fluorophenyl)ethyl)amino)-2-methyl-8,9-dihydro-7H-cyclopenta[h]quinazolin-6-yl)pyrrolidin-3-ol]
IC50 (pERK in DLD1 cells): 1 to 200 nM | IC50 (hSOS1 and hKRASG12C): 1 to 10 nM | IC50 [1]: 1 to 30 nM

Cc1nc(N[C@H](C)c2cc(N)cc(C(F)(F)F)c2)c2cc(N3CCNC(=O)C3)c3c(c2n1)CCC3 [Compound 53, (R)-4-(4-((1-(3-amino-5-(trifluoromethyl)phenyl)ethyl)amino)-2-methyl-8,9-dihydro-7H-cyclopenta[h]quinazolin-6-yl)piperazin-2-one]
IC50 (pERK in DLD1 cells): 1 to 200 nM | IC50 (hSOS1 and hKRASG12C): 1 to 10 nM | IC50 [1]: 1 to 30 nM

COCC1(O)CCN(c2cc3c(N[C@H](C)c4cccc(C(F)(F)C(C)O)c4F)nc(C)nc3c3c2CCC3)CC1 (single isomer, unassigned) [Compound 72a]
IC50 (pERK in DLD1 cells): 1 to 200 nM | IC50 (hSOS1 and hKRASG12C): 1 to 10 nM | IC50 [1]: 1 to 30 nM

COCC1(O)CCN(c2cc3c(N[C@H](C)c4cccc(C(F)(F)[C@@H](C)O)c4F)nc(C)nc3c3c2CCC3)CC1 (single isomer, unassigned) [Compound 72b]
IC50 (pERK in DLD1 cells): 1 to 200 nM | IC50 (hSOS1 and hKRASG12C): 1 to 10 nM | IC50 [1]: 1 to 30 nM

Cc1nc(N[C@H](C)c2cc(N)cc(C(F)(F)F)c2)c2cc(N3CCOCC3)c3c(c2n1)CCC3 [Compound 2, (R)—N-(1-(3-amino-5-(trifluoromethyl)phenyl)ethyl)-2-methyl-6-morpholino-8,9-dihydro-7H-cyclopenta[h]quinazolin-4-amine]
IC50 (pERK in DLD1 cells): 1 to 200 nM | IC50 (hSOS1 and hKRASG12C): 1 to 10 nM | IC50 [1]: 1 to 30 nM

COc1cc2c(N[C@H](C)c3cccc(C(F)(F)CO)c3F)nc(C)nc2c2c1N(C)CCO2 [Compound 121, (R)-2,2-difluoro-2-(2-fluoro-3-(1-((6-methoxy-2,7-dimethyl-8,9-dihydro-7H-[1,4]oxazino[3,2-h]quinazolin-4-yl)amino)ethyl)phenyl)ethan-1-ol]
IC50 (pERK in DLD1 cells): 1 to 200 nM | IC50 (hSOS1 and hKRASG12C): 1 to 10 nM | IC50 [1]: 1 to 30 nM

Cc1nc(N[C@H](C)c2cccc(C(F)(F)C(C)(C)O)c2F)c2cc(C3(O)CCOCC3)c3c(c2n1)CCC3 [Compound 119, (R)-4-(4-((1-(3-(1,1-difluoro-2-hydroxy-2-methylpropyl)-2-fluorophenyl)ethyl)amino)-2-methyl-8,9-dihydro-7H-cyclopenta[h]quinazolin-6-yl)tetrahydro-2H-pyran-4-ol]
IC50 (pERK in DLD1 cells): 1 to 200 nM | IC50 (hSOS1 and hKRASG12C): 11 to 20 nM | IC50 [1]: 31 to 70 nM

COC[C@H]1CN(c2cc3c(N[C@H](C)c4cccc(C(F)(F)C(C)(C)O)c4F)nc(C)nc3c3c2CCC3)CCO1 [Compound 62, 1,1-difluoro-1-(2-fluoro-3-((R)-1-((6-((R)-2-(methoxymethyl)morpholino)-2-methyl-8,9-dihydro-7H-cyclopenta[h]quinazolin-4-yl)amino)ethyl)phenyl)-2-methylpropan-2-ol]
IC50 (pERK in DLD1 cells): 1 to 200 nM | IC50 (hSOS1 and hKRASG12C): 1 to 10 nM | IC50 [1]: 1 to 30 nM

Cc1nc(N[C@H](C)c2cccc(C(F)(F)CO)c2F)c2cc(N3CC4(COC4)C3)c3c(c2n1)CCC3 [Compound 23, (R)-2,2-difluoro-2-(2-fluoro-3-(1-((2-methyl-6-(2-oxa-6-azaspiro[3.3]heptan-6-yl)-8,9-dihydro-7H-cyclopenta[h]quinazolin-4-yl)amino)ethyl)phenyl)ethan-1-ol]
IC50 (pERK in DLD1 cells): 1 to 200 nM | IC50 (hSOS1 and hKRASG12C): 1 to 10 nM | IC50 [1]: 1 to 30 nM

Cc1nc(N[C@H](C)c2cccc(C(F)(F)C(C)(C)O)c2F)c2cc(N3CCC(O)CC3)c3c(c2n1)CCC3 [Compound 65, (R)-1-(4-((1-(3-(1,1-difluoro-2-hydroxy-2-methylpropyl)-2-fluorophenyl)ethyl)amino)-2-methyl-8,9-dihydro-7H-cyclopenta[h]quinazolin-6-yl)piperidin-4-ol]
IC50 (pERK in DLD1 cells): 1 to 200 nM | IC50 (hSOS1 and hKRASG12C): 1 to 10 nM | IC50 [1]: 1 to 30 nM

Cc1nc(N[C@H](C)c2cccc(C(F)(F)C(C)O)c2F)c2cc(N3CC4(COC4)C3)c3c(c2n1)CCC3 (single isomer, unassigned) [Compound 73a]
IC50 (pERK in DLD1 cells): 1 to 200 nM | IC50 (hSOS1 and hKRASG12C): 1 to 10 nM | IC50 [1]: 1 to 30 nM

Cc1nc(N[C@H](C)c2cccc(C(F)(F)CO)c2F)c2cc(N3CCOCC3)c3c(c2n1)CCC3 [Compound 75, (R)-2,2-difluoro-2-(2-fluoro-3-(1-((2-methyl-6-morpholino-8,9-dihydro-7H-cyclopenta[h]quinazolin-4-yl)amino)ethyl)phenyl)ethan-1-ol]
IC50 (pERK in DLD1 cells): 1 to 200 nM | IC50 (hSOS1 and hKRASG12C): 1 to 10 nM | IC50 [1]: 1 to 30 nM

Cc1nc(N[C@H](C)c2cccc(C(F)(F)C(C)(C)O)c2F)c2cc(N3CCC(C)(CO)CC3)c3c(c2n1)CCC3 [Compound 60, (R)-1,1-difluoro-1-(2-fluoro-3-(1-((6-(4-(hydroxymethyl)-4-methylpiperidin-1-yl)-2-methyl-8,9-dihydro-7H-cyclopenta[h]quinazolin-4-yl)amino)ethyl)phenyl)-2-methylpropan-2-ol]
IC50 (pERK in DLD1 cells): 1 to 200 nM | IC50 (hSOS1 and hKRASG12C): 1 to 10 nM | IC50 [1]: 1 to 30 nM

Cc1nc(N[C@H](C)c2cc(N)cc(C(F)F)c2)c2cc(N3CCOCC3)c3c(c2n1)CC(C)(C)O3 [Compound 115, (R)—N-(1-(3-amino-5-(difluoromethyl)phenyl)ethyl)-2,8,8-trimethyl-6-morpholino-8,9-dihydrofuro[2,3-h]quinazolin-4-amine]
IC50 (pERK in DLD1 cells): 1 to 200 nM | IC50 (hSOS1 and hKRASG12C): 1 to 10 nM | IC50 [1]: 31 to 70 nM

Cc1nc(N[C@H](C)c2cc(N)cc(C(F)(F)F)c2)c2cc(N3CCC(O)(CO)CC3)c3c(c2n1)CCC3 [Compound 84, (R)-1-(4-((1-(3-amino-5-(trifluoromethyl)phenyl)ethyl)amino)-2-methyl-8,9-dihydro-7H-cyclopenta[h]quinazolin-6-yl)-4-(hydroxymethyl)piperidin-4-ol]
IC50 (pERK in DLD1 cells): 1 to 200 nM | IC50 (hSOS1 and hKRASG12C): 1 to 10 nM | IC50 [1]: 1 to 30 nM

Cc1nc(N[C@H](C)c2cc(N)cc(C(F)(F)F)c2)c2cc(N3CCOCC3)c3c(c2n1)CC(C)(C)O3 [Compound 113, (R)—N-(1-(3-amino-5-(trifluoromethyl)phenyl)ethyl)-2,8,8-trimethyl-6-morpholino-8,9-dihydrofuro[2,3-h]quinazolin-4-amine]
IC50 (pERK in DLD1 cells): 1 to 200 nM | IC50 (hSOS1 and hKRASG12C): 1 to 10 nM | IC50 [1]: 1 to 30 nM

Cc1nc(N[C@H](C)c2cc(N)cc(C(F)(F)F)c2)c2cc(N3CCOCC3=O)c3c(c2n1)CCC3 [Compound 83, (R)-4-(4-((1-(3-amino-5-(trifluoromethyl)phenyl)ethyl)amino)-2-methyl-8,9-dihydro-7H-cyclopenta[h]quinazolin-6-yl)morpholin-3-one]
IC50 (pERK in DLD1 cells): 1 to 200 nM | IC50 (hSOS1 and hKRASG12C): 11 to 20 nM | IC50 [1]: 71 to 130 nM

Cc1nc(N[C@H](C)c2cccc(C(F)(F)[C@@](C)(O)CO)c2F)c2cc(N3CCOCC3)c3c(c2n1)CCC3 (racemic) [Compound 82b, (S/R)-3,3-difluoro-3-(2-fluoro-3-((S/R)-1-((2-methyl-6-morpholino-8,9-dihydro-7H-cyclopenta[h]quinazolin-4-yl)amino)ethyl)phenyl)-2-methylpropane-1,2-diol]
IC50 (pERK in DLD1 cells): 1 to 200 nM | IC50 (hSOS1 and hKRASG12C): 1 to 10 nM | IC50 [1]: 1 to 30 nM

Cc1nc(N[C@H](C)c2cccc(C(F)(F)C(C)(C)O)c2F)c2cc(N3CCC(CO)CC3)c3c(c2n1)CCC3 [Compound 64, (R)-1,1-difluoro-1-(2-fluoro-3-(1-((6-(4-(hydroxymethyl)piperidin-1-yl)-2-methyl-8,9-dihydro-7H-cyclopenta[h]quinazolin-4-yl)amino)ethyl)phenyl)-2-methylpropan-2-ol]
IC50 (pERK in DLD1 cells): 1 to 200 nM | IC50 (hSOS1 and hKRASG12C): 1 to 10 nM | IC50 [1]: 1 to 30 nM
